# Laboratory results: PMC5650142, “GPR40 partial agonists and AgoPAMs: Differentiating effects on glucose and hormonal secretions in the rodent” (PLoS ONE, 2017)
# Where “and” joins values, the source holds several entries; their conditions need not be identical. Equal values may be shown once. Read-outs that look alike come from different tables or passages of the source.
# Legend:
# human GPR40 [1] = target: T1, human GPR40 (Homo sapiens, UniProt O14842); experiment: GPR40 binding assay, partial agonist tracer [3H]L358; set-up: expressed in transfected cells; host or cells: CHO / CHO-K1 cells, membrane preparation; conditions: radioligand L-001533358;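 for %Bound: 100% is tracer binding with DMSO alone and 0% is full displacement by a standard compound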
# T1 sequence (O14842 whole entry): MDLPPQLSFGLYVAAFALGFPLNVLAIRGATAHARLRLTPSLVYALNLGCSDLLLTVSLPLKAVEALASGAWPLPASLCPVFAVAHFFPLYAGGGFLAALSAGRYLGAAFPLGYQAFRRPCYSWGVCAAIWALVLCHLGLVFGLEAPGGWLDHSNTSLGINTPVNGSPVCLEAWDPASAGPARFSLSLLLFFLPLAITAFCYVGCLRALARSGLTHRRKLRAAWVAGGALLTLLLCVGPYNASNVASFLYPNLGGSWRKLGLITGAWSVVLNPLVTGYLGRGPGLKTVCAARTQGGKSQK
# Protocol: Two small molecule tracers, the partial agonist [3H][…] and the AgoPAM [3H]25, are used to measure compound affinity at each site as described previously. Because of the allosteric coupling of the two sites and the nature of the assay, addition of a compound will either displace (binds to same site) or augment (binds to allosterically coupled site) radiotracer. Membranes expressing GPR40 were prepared from CHO cells stably expressing human GPR40. […] Sigma P8830) and were homogenized in 50 ml aliquots with a motor-driven glass Dounce homogenizer, 15 strokes at 1900 rpm on wet ice, repeating once. Homogenates were centrifuged at 2200 rpm for 10 min at 4°C. Supernatants were carefully removed and pooled. Homogenization and centrifugation were repeated until the debris pellet was translucent to maximize membrane recovery. Supernatants were then centrifuged at […] rpm for 20 min. at 4°C. […] Protein concentration was determined by Pierce BCA kit. […] The beads and membrane mixture is then vigorously mixed for 30 minutes at room temperature prior to addition to the assay. […] Next, 15 μl of the radioligand and 35 μl of the beads/membranes solution is added to each well. The assay plates are then sealed and incubated for 30 minutes at room temperature on an orbital shaker. The plates are allowed to settle for 16 hours and then counted on a TopCount scintillation counter (PE). […] Maximal % bound and IC50 are then determined for each test compound. 5 μg/well membrane together with 200 μg/well of PVT WGA SPA beads (GE #RPNG-0001) were suspended in a white 96 well plate with a final concentration of 50 μl/well in assay buffer (50 mM Tris, 10 mM MgCl2, and 2 mM EDTA). […] The plate is briefly mixed and incubated for 3-18 h at room temperature, before it is read on a MicroBeta plate counter (Perkin Elmer, MS, USA).
# rat GPR40 = target: T2, rat GPR40 (Rattus norvegicus, UniProt Q8K3T4); experiment: Rat GPR40 IP1 accumulation assay; format: cell-based
# T2 construct: expressed in transfected cells; host or cells: CHO-K1 (methods)
# T2 sequence (Q8K3T4 whole entry): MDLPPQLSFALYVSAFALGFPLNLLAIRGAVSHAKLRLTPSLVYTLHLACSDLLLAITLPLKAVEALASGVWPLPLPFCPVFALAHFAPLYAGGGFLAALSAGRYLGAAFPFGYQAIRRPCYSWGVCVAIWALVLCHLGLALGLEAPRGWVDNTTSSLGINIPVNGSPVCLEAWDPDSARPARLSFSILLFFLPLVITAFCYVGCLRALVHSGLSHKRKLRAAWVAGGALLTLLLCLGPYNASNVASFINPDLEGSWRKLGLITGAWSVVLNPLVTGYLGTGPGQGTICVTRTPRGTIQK
# Protocol: (§1) Stable cell lines expressing human GPR40 (hGPR40/HEK293), mouse GPR40 (mGPR40/CHO-K1), and rat GPR40 (rGPR40/CHO-K1) were cultured in DMEM media supplemented with 10% FBS, glutamine, non-essential amino acids, and penicillin/streptomycin. hGPR40/HEK293 & mGPR40/CHO-K1 cell media was supplemented with […] G418 (Life Technologies), while rGPR40/CHO-K1 cells were grown in […] blasticidin plus […] hygromycin (Life Technologies). Cell stocks were maintained and grown in a sub-confluent state using standard cell culture procedures. The day before the experiment, the cells were harvested with non-enzymatic cell dissociation buffer and re-suspended in DMEM supplemented with 10% FBS, glutamine, non-essential amino acids, penicillin/streptomycin at 0.15, 0.2 and 0.3 million cells per ml for human, mouse, and rat GPR40, respectively. […] The seeded plates were incubated overnight at 37 C.
# (§2) On the day of the experiment, the growth media was removed from the assay by gently patting the assay plates on an absorbent sheet and 10 μl of IP1 stimulation buffer (Cis Bio IP-one Tb HTRF kit) supplemented with 50 mM LiCl is added to each well. Test compounds dissolved in DMSO were serially diluted in ½ log increments starting from 2 mM or 0.2 mM and 50 nl of the compound dilution was acoustically added to each well (final starting concentration 10 μM or 1 μM). Plates were then incubated for 60 minutes at room temperature and 10 μl of detection buffer (prepared as described in the Tb kit) is added to each well. The plates are then incubated one additional hour at room temperature. […] For each assay, a standard curve plate in which IP1 is titrated is also included. […] The percent activity at each concentration of test compound is determined using 0% activation (basal activity) determined in those wells that contain DMSO alone, while 100% activity is determined in wells that contained a concentration of a partial allosteric agonist know to activate GPR40. The % activity is then plotted versus the concentration of test compound and the dose response curve fitted to a standard 4-parameter non-linear regression model using a custom in-house developed software package (Merck & Co., Inc., MRL, Kenilworth, NJ, USA). Maximal % activity and EC50 are then determined for each test compound.
# human GPR40 [2] = target: T1, human GPR40; experiment: Human GPR40 IP1 accumulation assay; format: cell-based; set-up: expressed in transfected cells
# Protocol: as §1, §2
# mouse GPR40 = target: T3, mouse GPR40 (Mus musculus, UniProt Q76JU9); experiment: Mouse GPR40 IP1 accumulation assay; format: cell-based
# T3 construct: expressed in transfected cells; host or cells: CHO-K1 (methods)
# T3 sequence (Q76JU9 whole entry): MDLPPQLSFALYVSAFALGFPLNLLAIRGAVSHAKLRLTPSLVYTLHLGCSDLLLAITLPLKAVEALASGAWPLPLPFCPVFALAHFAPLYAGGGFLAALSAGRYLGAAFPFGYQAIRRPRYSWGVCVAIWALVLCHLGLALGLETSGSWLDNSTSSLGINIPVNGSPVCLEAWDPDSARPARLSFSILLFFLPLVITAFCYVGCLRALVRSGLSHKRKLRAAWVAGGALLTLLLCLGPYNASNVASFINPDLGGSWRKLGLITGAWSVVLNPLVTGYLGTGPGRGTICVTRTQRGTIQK
# Protocol: as §1, §2
# [3] = maximal % activity vs in-house partial agonist control
smiles,measurement,setting,value
COc1ccc(F)c(-c2ccc([C@@H]3CCc4ccc([C@H](C5CC5)[C@H](C)C(=O)O)cc4O3)cc2)c1 [AP1],% Bound Normalized to 100,human GPR40 [1]; dose 0.318285 nM,100.72%
same,%Bound,human GPR40 [1]; dose 0.318285 nM,106.70%
same,% Bound Normalized to 100,human GPR40 [1]; dose 1.00578 nM,118.24%
same,%Bound,human GPR40 [1]; dose 1.00578 nM,124.21%
same,% Bound Normalized to 100,human GPR40 [1]; dose 3.17827 nM,131.70%
same,%Bound,human GPR40 [1]; dose 3.17827 nM,137.67%
same,% Bound Normalized to 100,human GPR40 [1]; dose 10.0433 nM,152.63%
same,%Bound,human GPR40 [1]; dose 10.0433 nM,158.61%
same,% Bound Normalized to 100,human GPR40 [1]; dose 31.7369 nM,164.17%
same,%Bound,human GPR40 [1]; dose 31.7369 nM,170.14%
same,% Bound Normalized to 100,human GPR40 [1]; dose 100.289 nM,171.43%
same,%Bound,human GPR40 [1]; dose 100.289 nM,177.41%
same,% Bound Normalized to 100,human GPR40 [1]; dose 316.912 nM,183.61%
same,%Bound,human GPR40 [1]; dose 316.912 nM,189.59%
same,% Bound Normalized to 100,human GPR40 [1]; dose 1001.44 nM,174.85%
same,%Bound,human GPR40 [1]; dose 1001.44 nM,180.83%
same,% Bound Normalized to 100,human GPR40 [1]; dose 3164.56 nM,169.51%
same,%Bound,human GPR40 [1]; dose 3164.56 nM,175.49%
same,% Bound Normalized to 100,human GPR40 [1]; dose 10000 nM,192.80%
same,%Bound,human GPR40 [1]; dose 10000 nM,198.77%
same,Rat GPR40 Receptor Activation (%),rat GPR40; dose 1.50E-11 M,7%
same,Rat GPR40 Receptor Activation (%),rat GPR40; dose 1.55E-08 M,588%
same,Rat GPR40 Receptor Activation (%),rat GPR40; dose 2.43E-10 M,161%
same,Rat GPR40 Receptor Activation (%),rat GPR40; dose 2.49E-07 M,616%
same,Rat GPR40 Receptor Activation (%),rat GPR40; dose 3.89E-09 M,549%
same,Rat GPR40 Receptor Activation (%),rat GPR40; dose 4.00E-12 M,0.25%
same,Rat GPR40 Receptor Activation (%),rat GPR40; dose 6.10E-11 M,52%
same,Rat GPR40 Receptor Activation (%),rat GPR40; dose 6.22E-08 M,567%
same,Rat GPR40 Receptor Activation (%),rat GPR40; dose 9.72E-10 M,357%
same,Rat GPR40 Receptor Activation (%),rat GPR40; dose 9.95E-07 M,567%
same,"%Act, Rat GPR40, Functional Assay",rat GPR40; individual determinations,391% and 456% and 671% and 592% and 636% and 716% and 674% and 356% and 385% and 437%
same,EC50,"rat GPR40; individual determinations, read-out: EC50 (nM), Rat GPR40, Functional Assay",0.45 nM and 0.46 nM and 0.58 nM and 0.61 nM and 0.72 nM and 0.95 nM and 1.15 nM and 0.31 nM and 0.33 nM and 0.36 nM
same,"Efficacy (% Activation), Rat",rat GPR40; [3],(531%)
same,EC50,"rat GPR40; mean ± SD, n = 2–20, IP accumulation, read-out: Potency [EC50, nM] ± SD, Rat",0.59 ± 0.28 nM
same,Human GPR40 Receptor Activation (%),human GPR40 [2]; dose 1.50E-11 M,35%
same,Human GPR40 Receptor Activation (%),human GPR40 [2]; dose 1.55E-08 M,357%
same,Human GPR40 Receptor Activation (%),human GPR40 [2]; dose 2.43E-10 M,231%
same,Human GPR40 Receptor Activation (%),human GPR40 [2]; dose 2.49E-07 M,381%
same,Human GPR40 Receptor Activation (%),human GPR40 [2]; dose 3.89E-09 M,357%
same,Human GPR40 Receptor Activation (%),human GPR40 [2]; dose 4.00E-12 M,5%
same,Human GPR40 Receptor Activation (%),human GPR40 [2]; dose 6.10E-11 M,154%
same,Human GPR40 Receptor Activation (%),human GPR40 [2]; dose 6.22E-08 M,356%
same,Human GPR40 Receptor Activation (%),human GPR40 [2]; dose 9.72E-10 M,323%
same,Human GPR40 Receptor Activation (%),human GPR40 [2]; dose 9.95E-07 M,404%
same,"%Act, HUMAN GPR40, Functional Assay",human GPR40 [2]; individual determinations,254% and 368% and 338% and 409% and 464% and 275% and 405% and 364% and 355%
same,EC50,"human GPR40 [2]; individual determinations, read-out: EC50 (nM), HUMAN GPR40, Functional Assay",0.13 nM and 0.14 nM and 0.18 nM and 0.19 nM and 0.22 nM and 0.08 nM and 0.09 nM and 0.12 nM
same,"Efficacy (% Activation), Human",human GPR40 [2]; [3],(359%)
same,EC50,"human GPR40 [2]; mean ± SD, n = 2–20, IP accumulation, read-out: Potency [EC50, nM] ± SD, Human",0.15 ± 0.05 nM
same,Mouse GPR40 Receptor Activation (%),mouse GPR40; dose 1.50E-11 M,13%
same,Mouse GPR40 Receptor Activation (%),mouse GPR40; dose 1.55E-08 M,531%
same,Mouse GPR40 Receptor Activation (%),mouse GPR40; dose 2.43E-10 M,207%
same,Mouse GPR40 Receptor Activation (%),mouse GPR40; dose 2.49E-07 M,540%
same,Mouse GPR40 Receptor Activation (%),mouse GPR40; dose 3.89E-09 M,508%
same,Mouse GPR40 Receptor Activation (%),mouse GPR40; dose 4.00E-12 M,-3.79%
same,Mouse GPR40 Receptor Activation (%),mouse GPR40; dose 6.10E-11 M,72%
same,Mouse GPR40 Receptor Activation (%),mouse GPR40; dose 6.22E-08 M,489%
same,Mouse GPR40 Receptor Activation (%),mouse GPR40; dose 9.72E-10 M,327%
same,"%Act, Mouse GPR40, Functional Assay",mouse GPR40; individual determinations,325% and 647% and 612% and 390% and 593% and 587% and 801% and 441% and 392% and 533%
same,EC50,"mouse GPR40; individual determinations, read-out: EC50 (nM), Mouse GPR40, Functional Assay",0.44 nM and 0.48 nM and 0.55 nM and 0.56 nM and 0.66 nM and 0.74 nM and 0.33 nM and 0.41 nM and 0.43 nM
same,"Efficacy (% Activation), Mouse",mouse GPR40; [3],(532%)
same,EC50,"mouse GPR40; mean ± SD, n = 2–20, IP accumulation, read-out: Potency [EC50, nM] ± SD, Mouse",0.51 ± 0.12 nM
